Test results reported in patent US11813277B2, “Methods and agents for modulating inflammation” (The Regents of the University of California, priority 2018, dated 2023).

Experiments:
[1] = system: phosphate (Pi) transporter; assay: Phosphate transporter assay (mitochondrial swelling); format: biochemical, rat; settings: 250 μM etomoxir, 100 μM NEM, 10 μM mersalyl
Experimental: Phosphate transport was measured by monitoring swelling of de-energized mitochondria in isotonic potassium phosphate medium based upon principles described by Coty, W. A. and Pedersen, P. L. (1975) Phosphate transport in rat liver mitochondria. Kinetics, inhibitor sensitivity, energy requirements, and labeled components. Mol Cell Biochem. 9, 109-24. As the phosphate carrier acts as electroneutral symporter with protons, the process is self-restricting due to generation of an opposing pH gradient. […] In the presence of nigericin, the proton fluxes cycle resulting in electro- and pH-neutral transport of potassium phosphate down its concentration gradient into the mitochondrial matrix, resulting in osmotic accumulation of water. Under these conditions, transport is limited by the activity of phosphate carrier, and can be recorded as mitochondrial swelling (a decrease in light scattering).
The measurements were performed in an LS-50B spectrofluorometer (Perkin-Elmer) at 540 nm. Assay medium contained 125 mM potassium phosphate, pH 7.2, 0.5 mM EGTA, and 2 μM rotenone. Mouse liver mitochondria (0.5 mg/ml) were treated with 250 μM etomoxir, 100 μM N-ethylmaleimide (NEM) (Klingenberg, M., Durand, R., and Guerin, B. (1974) Analysis of the reactivity of SH-reagents with the mitochondrial phosphate carrier. Eur J Biochem, 42, 135-150) or 10 μM mersalyl (Paradies, G. and Ruggiero, F. M. (1991) Effect of aging on the activity of the phosphate carrier and on the lipid composition in rat liver mitochondria. Arch Biochem Biophys. 284, 332-337) and the reaction was started with 5 μM nigericin. Typical traces from 3 experiments are shown. To establish the maximally swollen state of mitochondria, 80 μg/ml alamethicin was used.

[2] = system: M(IL-4) polarization of BMDMs; assay: Flow cytometry of IL-4-associated cell surface markers in BMDMs; format: cell-based, mouse; settings: for number of cells positive for both CD206 and CD71: IL-4; for population of CD206+/CD71+ cells: oxidative phosphorylation inhibitors co-treated with IL-4
Experimental: (§1) For all gene expression and flow cytometry experiments described below, day 6 BMDM were plated at 3×10^5 cell/well in 12-well plates. The next day, cells were treated with appropriate compounds (and duration as indicated in figures and below) in DMEM supplemented with 5% FBS, 2 mM L-glutamine, 100 units/mL, 100 μg/mL penicillin/streptomycin, 500 μM of sodium pyruvate and 5% v/v conditioned media containing macrophage colony stimulating factor (M-CSF).
(§2) For flow cytometry experiments involving etomoxir (FIG. 1G, FIG. 2A, FIG. 2D, FIG. 3A, FIG. 3B, FIG. 3G, FIG. 3H): BMDMs were mock-treated (media replacement only) or treated with 20 ng/mL of IL-4±3 μM or 200 μM of etomoxir for 48 hr. When measuring expression of M(IL-4)-associated genes in response to etomoxir (FIG. 1H, FIG. 2B), BMDMs were mock-treated or treated with 20 ng/mL of IL4±etomoxir as indicated for 24 hr.
(§3) For experiments involving respiratory chain inhibitors: BMDMs were mock-treated (media replacement only) or treated with 20 ng/mL of IL4±1.2 μM oligomycin (Oligo), 200 nM rotenone (Rot), 200 nM antimycin A (AntiA), 100 nM piericidin A (PierA), or 5 μM carboxyatractylate (CAT) for either 24 (FIG. 4G, FIG. 4H, FIG. 6G) or 48 hr (FIG. 4F, FIG. 7D). All inhibitors were given as co-treatments simultaneously with IL-4.
For experiments involving CoA supplementation (FIG. 10A, FIG. 10B, FIG. 10C, FIG. 10D, FIG. 10E, FIG. 9C, FIG. 9D): BMDMs were mock-treated (media replacement only) or treated with 20 ng/mL of IL4±etomoxir (concentration indicated in figures)±CoA (concentration indicated in figures) for 48 hr. Etomoxir and CoA were given as co-treatments simultaneously with IL-4.
Prior to FACS analysis, BMDMs were detached using 350 μL of Accutase, followed by two washes with FACS buffer (PBS+1% (v/v) BSA+0.05% (w/v) sodium azide). Anti-mouse CD16/32 antibody was used at a dilution of 1:500, while all other antibodies were used at a dilution of 1:250. All flow cytometry data were captured using BD FACSVerse flow cytometer and analyzed using the FlowJo X 10.0.7r2 software. In all, 2×104 live events were acquired for each sample (gated on DAPIneg). For analysis, CD206+/CD71+ and CD206+/CD301+ populations were gated based on Fluorescence Minus One (FMO) controls.

[3] = system: Relma, Mgl2, Ym1, Fabp4, Arg1 expression; assay: qPCR of IL-4-associated genes in BMDMs; format: cell-based, mouse; settings: for IL-4-induced expression of Relma, Ym1, Mgl2: electron transport chain inhibitors
Experimental: as §1, §2, §3
RNA was isolated with TRIzol, then cDNA was synthesized with high-capacity cDNA reverse transcription kit. KAPA SYBR FAST qPCR Master Mix kit and a LightCycler 480 were used for quantitative RT-PCR. Fold change related to the control group was calculated using […] with 36b4 as the reference gene.

BMDMs = assay: Basal mitochondrial respiration in intact BMDMs; format: cell-based, mouse; settings: 1.2 μM oligomycin, 200 nM rotenone, 200 nM antimycin A, 100 nM piericidin A, 5 μM CAT
Experimental: All respirometry studies were conducted in either a Seahorse XF96 or XFe96 Analyzer. All experiments were conducted at 37° C., and at pH 7.4 (intact cells) or 7.2 (permeabilized cells and isolated mitochondria). Calculation of respiratory parameters was made according to standard protocols (Divakaruni, A. S., Paradyse, A., Ferrick, D. A., Murphy, A. N., and Jastroch, M. (2014a) Analysis and interpretation of microplate-based oxygen consumption and pH data. Meth. Enzym 547, 509-54), and all rates were corrected for non-mitochondrial respiration/background signal by subtracting the oxygen consumption rate insensitive to rotenone plus antimycin A.
Respiration in intact BMDMs was measured in medium containing 8 mM glucose, 2 mM glutamine, 2 mM pyruvate, and 5 mM HEPES. Cells were plated at 5.0×10^4 cells/well and assayed after 48 hr. When measuring the response to IL-4, cells were treated with 20 ng/mL of IL-4 24 hr. after initial plating, and respiration was measured the following day (˜48 hr after initial seeding). […]

[4] = system: adenine nucleotide translocase (ANT); assay: ATP hydrolysis in isolated mitochondria, intact or alamethicin-permeabilized; format: biochemical, rat
Excerpt: ATP hydrolysis in isolated mitochondria (McQuaker, S. J., Quinlan, C. L., Caldwell, S. T., Brand, M. D., and Hartley, R. C. (2013). A prototypical small molecule modulator uncouples mitochondria in response to endogenous hydrogen peroxide production. Chembiochem. 14, 993-1000; Divakaruni, A. S., Andreyev, A. Y., Rogers, G. W., and Murphy, A. N. (2017a) In situ measurements of mitochondrial matrix enzyme activities using plasma and mitochondrial membrane permeabilization agents. Anal. Biochem. 17, 30385-8) was performed in MAS buffer, and stimulated by respiratory chain inhibition (1 μM rotenone and 2 μM antimycin A) followed by addition of excess ATP (25 mM) and uncoupler (1 μM FCCP). Hydrolysis was inhibited by injection of either oligomycin (3 ng/mg mitochondrial protein) or carboxyatractylo side (7.5 ng/mg mitochondrial protein). Rates of extracellular acidification (ECAR, in mpH/min) were converted to proton production rates (PPR, in pmol H+/min) by determining the buffer capacity with sequential injections of HCl and H2SO4 (Mookerjee, S. A., Goncalves, R. L., Gerencser, A. A., Nicholls, D. G., and Brand, M. D. (2015). The contributions of respiration and glycolysis to extracellular acid production. Biochim et Biophys Acta. 1847, 171-81). 10 μg/mL alamethicin was used to permeabilize the mitochondrial inner membrane (1 μg/mg mitochondrial protein).

LCFA oxidation in BMDMs = assay: 9,10-3H-palmitate oxidation (3H2O release) in BMDMs; format: cell-based, mouse; settings: 200 nM rotenone or 200 nM antimycin A, IL-4-stimulated
Experimental: BMDMs at day 6 of differentiation were seeded at 3×10^5 cells/well in 12 well plates in BMDM media. The next day, cells were treated in DMEM containing 25 mM glucose supplemented with 5% FBS, 2 mM L-Glutamax, 100 units/mL, 100 μg/mL penicillin/streptomycin, 1 mM of sodium pyruvate, 1 mM carnitine, and 5% v/v conditioned media containing macrophage colony stimulating factor (M-CSF) under one of 5 conditions: control, 20 ng/mL of IL-4±3 μM or 200 μM of etomoxir, or 200 nM rotenone, or 200 nM antimycin A for 24 hr. Fatty acid oxidation was measured 24 hours later as previously described (Rognstad, R. (1991) Estimation of peroxisomal and mitochondrial fatty acid oxidation in rat hepatocytes using tritiated substrates. Biochem J 279:147-150, 1991; Cha, B. S., Ciaraldi, T. P., Park, K. S., Carter, L., Mudaliar, S. R., and Henry R R. (2005) Impaired fatty acid metabolism in type 2 diabetic skeletal muscle cells is reversed by PPARgamma agonists. Am J Physiol Endocrinol Metab. 289, E151-9) following a fluid change to DMEM with components as described above except 10 mM glucose and 0.2 μCi (final concentration of 5 μM) BSA-conjugated [9,10-3H]palmitic acid. No additional IL-4 was added at the time of this fluid change, but etomoxir, rotenone and antimycin A were added, and the plates were placed in a […] incubator at 37° C. for 3 hr. After incubation, a 100 μL aliquot of the culture medium was passed over an ion-exchange resin, and the column was washed twice with 0.75 ml of water. Free fatty acids were retained by the resin, whereas the tritium hydrolyzed from radiolabeled palmitate catabolism was released as labeled water, which passes freely through the resin, and is subsequently counted for radioactivity. All data are corrected for protein content in each well. There were 3 technical replicates for each condition, and 4 biological replicates arising from 4 separate animals.

[5] = alamethicin-permeabilized mitochondria
[6] = intact isolated mitochondria, etomoxir 100 μM, CAT 7.5 ng/mg, oligomycin 3 ng/mg

## CCN1C(=O)C=CC1=O [N-ethyl maleimide, N-ethylmaleimide]
[1]
  Pi transporter activity (rate of swelling): inhibited the rate of swelling

## CC(=O)SCCNC(=O)CCNC(=O)[C@H](O)C(C)(C)COP(=O)(O)OP(=O)(O)OC[C@H]1O[C@@H](n2cnc3c(N)ncnc32)[C@H](O)[C@@H]1OP(=O)(O)O [acetyl CoA]
[2]; 500 μM acetyl CoA
  number of cells positive for both CD206 and CD71: cannot reproduce the effect of CoA
[2]; acetyl CoA with CoA, both 500 μM
  number of cells positive for both CD206 and CD71: counteracts the effect of CoA
[3]; 500 μM acetyl CoA
  expression of Arg1, Mgl2 and Fabp4: different effects than CoA

## C=C1[C@@H]2CC[C@H]3[C@]4(C)C[C@H](O[C@@H]5O[C@H](CO)[C@@H](OS(=O)(=O)O)[C@H](OS(=O)(=O)O)[C@H]5OC(=O)CC(C)C)CC(C(=O)O)(C(=O)O)[C@H]4CC[C@]3(C2)[C@H]1O [carboxyatractyloside]
[2]
  population of CD206+/CD71+ cells: none of the inhibitors of ATP synthesis or the electron transport chain significantly lowered
BMDMs
  respiration at 24 hr: strongly reduced respiration
[4]; [5]
  ATP hydrolysis: no effect
[4]; [6]
  ATP hydrolysis: inhibited ATP hydrolysis

## COC(CNC(=O)c1ccccc1OCC(=O)O)[CH2][Hg][OH] (stereo not drawn) [mersalyl]
[1]
  Pi transporter activity (rate of swelling): inhibited the rate of swelling

## CC[C@H]1/C=C/C=C/C[C@@H](C)[C@H](O)[C@@](C)(O)C(=O)[C@@H](C)[C@H](O)[C@@H](C)C(=O)[C@@H](C)[C@H](O)[C@@H](C)/C=C/C(=O)O[C@@H]2[C@H](C)[C@H](CC1)O[C@]1(CC[C@H](C)[C@H](C[C@@H](C)O)O1)[C@H]2C [oligomycin]
[2]
  population of CD206+/CD71+ cells: none of the inhibitors of ATP synthesis or the electron transport chain significantly lowered
BMDMs
  respiration at 24 hr: strongly reduced respiration
[4]; [5]
  ATP hydrolysis: remained inhibitory
[4]; [6]
  ATP hydrolysis: inhibited ATP hydrolysis

## C/C=C(\C)[C@H](O)[C@H](C)/C=C(C)/C=C/C/C(C)=C/Cc1nc(OC)c(OC)c(O)c1C [piericidin A]
[2]
  population of CD206+/CD71+ cells: none of the inhibitors of ATP synthesis or the electron transport chain significantly lowered
[3]; IL-4, 24 hr
  IL-4-induced expression of Relma, Ym1, Mgl2: failed to reduce
[3]; mitochondrial inhibitors, IL-4, 24 hr
  expression of Ym1 and Arg1: increased expression
BMDMs
  respiration at 24 hr: strongly reduced respiration

## antimycin A
LCFA oxidation in BMDMs
  3H2O release from 9,10-3H-palmitate: suppressed LCFA oxidation to levels in line with 200 μM etomoxir
[2]
  population of CD206+/CD71+ cells: none of the inhibitors of ATP synthesis or the electron transport chain significantly lowered
[3]; IL-4, 24 hr
  IL-4-induced expression of Relma, Ym1, Mgl2: failed to reduce
BMDMs
  respiration at 24 hr: strongly reduced respiration
